Results: US20210045385A1, “PYRIDAZINONE-SUBSTITUTED KETOXIMES AS HERBICIDES” (FMC Corporation, priority 2018, published 2021)

How the values were obtained:
Type in all cases: in vivo
[1] = test system: Italian ryegrass (Lolium multiflorum); test: Test A preemergence, visual plant response rating; settings: for Ryegrass, Italian plant response rating: 125 g ai/ha, preemergence, 0 to 100 scale, 0 no effect, 100 complete control; for Ryegrass, Italian plant response rating (0 to 100 scale): 500 g ai/ha Preemergence, approx. 10 days
Summary of the method: (§1)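 Preemergence: seeds in loam/sand blend given directed soil spray of compound in non-phytotoxic solvent with surfactant. Postemergence: plants 2–10 cm, one- to two-leaf stage, sprayed with same formulation. Visual injury rated vs untreated controls after ~10 days in greenhouse, 0 (no effect) to 100 (complete control).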

[2] = test system: barnyardgrass (Echinochloa crus-galli); test: Test A preemergence, visual plant response rating; settings: for Barnyardgrass plant response rating: 125 g ai/ha, preemergence, 0 to 100 scale, 0 no effect, 100 complete control; for Barnyardgrass plant response rating (0 to 100 scale): 500 g ai/ha Preemergence, approx. 10 days
Summary of the method: as §1

[3] = test system: foxtail, giant (giant foxtail, Setaria faberii); test: Test A preemergence, visual plant response rating; settings: for Foxtail, Giant plant response rating: 125 g ai/ha, preemergence, 0 to 100 scale, 0 no effect, 100 complete control; for Foxtail, Giant plant response rating (0 to 100 scale): 500 g ai/ha Preemergence, approx. 10 days
Summary of the method: as §1

[4] = test system: kochia (Kochia scoparia); test: Test A preemergence, visual plant response rating; settings: for Kochia plant response rating: 125 g ai/ha, preemergence, 0 to 100 scale, 0 no effect, 100 complete control; for Kochia plant response rating (0 to 100 scale): 500 g ai/ha Preemergence, approx. 10 days
Summary of the method: as §1

[5] = test system: pigweed (Amaranthus retroflexus); test: Test A preemergence, visual plant response rating; settings: for Pigweed plant response rating: 125 g ai/ha, preemergence, 0 to 100 scale, 0 no effect, 100 complete control; for Pigweed plant response rating (0 to 100 scale): 500 g ai/ha Preemergence, approx. 10 days
Summary of the method: as §1

[6] = test system: ragweed (common ragweed, Ambrosia elatior); test: Test A preemergence, visual plant response rating; settings: for Ragweed plant response rating: 125 g ai/ha, preemergence, 0 to 100 scale, 0 no effect, 100 complete control; for Ragweed plant response rating (0 to 100 scale): 500 g ai/ha Preemergence, approx. 10 days
Summary of the method: as §1

[7] = test system: Italian ryegrass (Lolium multiflorum); test: Test A postemergence, visual plant response rating; settings: for Ryegrass, Italian plant response rating (0 to 100 scale): 500 g ai/ha, postemergence, 0 is no effect, 100 is complete control; for Ryegrass, Italian plant response rating: Postemergence, 125 g ai/ha, 0 to 100 scale (0 no effect, 100 complete control)
Summary of the method: as §1

[8] = test system: barnyardgrass (Echinochloa crus-galli); test: Test A postemergence, visual plant response rating; settings: for Barnyardgrass plant response rating (0 to 100 scale): 500 g ai/ha, postemergence, 0 is no effect, 100 is complete control; for Barnyardgrass plant response rating: Postemergence, 125 g ai/ha, 0 to 100 scale (0 no effect, 100 complete control)
Summary of the method: as §1

[9] = test system: blackgrass (Alopecurus myosuroides); test: Test A postemergence, visual plant response rating; settings: for Blackgrass plant response rating (0 to 100 scale): 500 g ai/ha, postemergence, 0 is no effect, 100 is complete control; for Blackgrass plant response rating: Postemergence, 125 g ai/ha, 0 to 100 scale (0 no effect, 100 complete control)
Summary of the method: as §1

[10] = test system: corn (Zea mays); test: Test A postemergence, visual plant response rating; settings: for Corn plant response rating (0 to 100 scale): 500 g ai/ha, postemergence, 0 is no effect, 100 is complete control; for Corn plant response rating: Postemergence, 125 g ai/ha, 0 to 100 scale (0 no effect, 100 complete control)
Summary of the method: as §1

[11] = test system: foxtail, giant (giant foxtail, Setaria faberii); test: Test A postemergence, visual plant response rating; settings: for Foxtail, Giant plant response rating (0 to 100 scale): 500 g ai/ha, postemergence, 0 is no effect, 100 is complete control; for Foxtail, Giant plant response rating: Postemergence, 125 g ai/ha, 0 to 100 scale (0 no effect, 100 complete control)
Summary of the method: as §1

[12] = test system: galium (catchweed bedstraw, Galium aparine); test: Test A postemergence, visual plant response rating; settings: for Galium plant response rating (0 to 100 scale): 500 g ai/ha, postemergence, 0 is no effect, 100 is complete control; for Galium plant response rating: Postemergence, 125 g ai/ha, 0 to 100 scale (0 no effect, 100 complete control)
Summary of the method: as §1

[13] = test system: kochia (Kochia scoparia); test: Test A postemergence, visual plant response rating; settings: for Kochia plant response rating (0 to 100 scale): 500 g ai/ha, postemergence, 0 is no effect, 100 is complete control; for Kochia plant response rating: Postemergence, 125 g ai/ha, 0 to 100 scale (0 no effect, 100 complete control)
Summary of the method: as §1

[14] = test system: pigweed (Amaranthus retroflexus); test: Test A postemergence, visual plant response rating; settings: for Pigweed plant response rating (0 to 100 scale): 500 g ai/ha, postemergence, 0 is no effect, 100 is complete control; for Pigweed plant response rating: Postemergence, 125 g ai/ha, 0 to 100 scale (0 no effect, 100 complete control)
Summary of the method: as §1

[15] = test system: ragweed (common ragweed, Ambrosia elatior); test: Test A postemergence, visual plant response rating; settings: for Ragweed plant response rating (0 to 100 scale): 500 g ai/ha, postemergence, 0 is no effect, 100 is complete control; for Ragweed plant response rating: Postemergence, 125 g ai/ha, 0 to 100 scale (0 no effect, 100 complete control)
Summary of the method: as §1

[16] = test system: wheat (Triticum aestivum); test: Test A postemergence, visual plant response rating; settings: for Wheat plant response rating (0 to 100 scale): 500 g ai/ha, postemergence, 0 is no effect, 100 is complete control; for Wheat plant response rating: Postemergence, 125 g ai/ha, 0 to 100 scale (0 no effect, 100 complete control)
Summary of the method: as §1

[17] = test system: barnyardgrass (Echinochloa crus-galli); test: Test B flooded paddy test, visual plant response rating; settings: 250 g ai/ha, Flood, applied to paddy water, 2-leaf stage, evaluated after 13 to 15 days
Summary of the method: (§2)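 Rice, umbrella sedge, ducksalad and barnyardgrass grown to 2-leaf stage; pots flooded 3 cm above soil and compound applied directly to paddy water, depth maintained.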

[18] = test system: ducksalad (Heteranhera limosa); test: as above; settings: 250 g ai/ha, Flood, applied to paddy water, 2-leaf stage, evaluated after 13 to 15 days
Summary of the method: as §2

[19] = test system: rice (Oryza sativa); test: as above; settings: 250 g ai/ha, Flood, applied to paddy water, 2-leaf stage, evaluated after 13 to 15 days
Summary of the method: as §2

[20] = test system: sedge, umbrella (small-flower umbrella sedge, Cyperus difformis); test: as above; settings: 250 g ai/ha, Flood, applied to paddy water, 2-leaf stage, evaluated after 13 to 15 days
Summary of the method: as §2

SMILES	Ryegrass, Italian plant response rating [1]	Ryegrass, Italian plant response rating (0 to 100 scale) [1]	Barnyardgrass plant response rating [2]	Barnyardgrass plant response rating (0 to 100 scale) [2]	Foxtail, Giant plant response rating [3]	Foxtail, Giant plant response rating (0 to 100 scale) [3]	Kochia plant response rating [4]	Kochia plant response rating (0 to 100 scale) [4]	Pigweed plant response rating [5]	Pigweed plant response rating (0 to 100 scale) [5]	Ragweed plant response rating [6]	Ragweed plant response rating (0 to 100 scale) [6]	Ryegrass, Italian plant response rating (0 to 100 scale) [7]	Ryegrass, Italian plant response rating [7]	Barnyardgrass plant response rating (0 to 100 scale) [8]	Barnyardgrass plant response rating [8]	Blackgrass plant response rating (0 to 100 scale) [9]	Blackgrass plant response rating [9]	Corn plant response rating (0 to 100 scale) [10]	Corn plant response rating [10]	further results
CCC(=O)Oc1c(C)nn(C)c(=O)c1C(=NOC)c1cccc2ccccc12 [Compound 49]	40	70	30	90	50	80	50	70	90	100	100	100	80	40	50	20	90	70	50	0	Foxtail, Giant plant response rating (0 to 100 scale) [11]: 80; Foxtail, Giant plant response rating [11]: 40; Galium plant response rating (0 to 100 scale) [12]: 90; Galium plant response rating [12]: 80; Kochia plant response rating (0 to 100 scale) [13]: 90; Kochia plant response rating [13]: 70; Pigweed plant response rating (0 to 100 scale) [14]: 90; Pigweed plant response rating [14]: 80; Ragweed plant response rating (0 to 100 scale) [15]: 90; Ragweed plant response rating [15]: 80; Wheat plant response rating (0 to 100 scale) [16]: 10; Wheat plant response rating [16]: 0; Plant response rating, Barnyardgrass (0 to 100 scale, 0 is no effect, 100 is complete control) [17]: 0; Plant response rating, Ducksalad (0 to 100 scale, 0 is no effect, 100 is complete control) [18]: 0; Plant response rating, Rice (0 to 100 scale, 0 is no effect, 100 is complete control) [19]: 0; Plant response rating, Sedge, Umbrella (0 to 100 scale, 0 is no effect, 100 is complete control) [20]: 0
CO/N=C(\c1cccc(C)c1F)c1c(O)c(C)nn(C)c1=O [Compound 50]	30	30	10	60	0	40	10	70	30	90	50	90	80	20	40	10	30	0	0	0	Foxtail, Giant plant response rating (0 to 100 scale) [11]: 70; Foxtail, Giant plant response rating [11]: 20; Galium plant response rating (0 to 100 scale) [12]: 70; Galium plant response rating [12]: 70; Kochia plant response rating (0 to 100 scale) [13]: 80; Kochia plant response rating [13]: 60; Pigweed plant response rating (0 to 100 scale) [14]: 90; Pigweed plant response rating [14]: 90; Ragweed plant response rating (0 to 100 scale) [15]: 80; Ragweed plant response rating [15]: 70; Wheat plant response rating (0 to 100 scale) [16]: 0; Wheat plant response rating [16]: 0; Plant response rating, Barnyardgrass (0 to 100 scale, 0 is no effect, 100 is complete control) [17]: 0; Plant response rating, Ducksalad (0 to 100 scale, 0 is no effect, 100 is complete control) [18]: 0; Plant response rating, Rice (0 to 100 scale, 0 is no effect, 100 is complete control) [19]: 0; Plant response rating, Sedge, Umbrella (0 to 100 scale, 0 is no effect, 100 is complete control) [20]: 0
